Data from patent publication US4096112A, “2-Phenyl-indole derivative stabilizers for PVC resins” (Labaz, priority 1976, dated 1978).
Each block holds one compound with its values, some of them ahead of it.

Key:
mice [1] = test: Maximal dose which does not provoke any death (LD0), oral route, mice; assay type: in vivo; details: for Toxic symptoms: LD0 test
Procedure: (§1) A gummy suspension of the substance under study was administered by oral route to groups of at least ten mice and the following results were observed: […]

[2] = assay type: physicochemical; details: water; for Extractibility compared with 2-phenyl-indole: aqueous ethanol and heptane
Procedure: The stabilizers according to the invention may be used to stabilize polymers which are intended for the manufacture of packaging and containers for food and drink and it was therefore necessary, in spite of their low toxicity, to determine their extractibility by solvents simulating food and drink. This study was carried out in accordance with the requirements of the Food and Drug Administration (U.S.A). The extractions were performed in semi-rigid bottles, prepared with Compounds Nos. 609 and 676, and with the following solvents: water, an aqueous solution of acetic acid (3%), ethanol-water 50/50, heptane. The ratio of the volume of solvent to the surface of plastic material exposed to extraction was about 1 to 100 ml of solvent, taking into account the geometric characteristics of the bottles. Temperature: 49° C Heating: A thermostated oven for the non-inflammable solvents (water and acetic acid) A thermostated water-bath for the inflammable solvents (alcohol and heptane) Duration of extraction: This is indicated under each result. They are, in each case, intentionally longer than those which would have given stable maximum values. The quantity of stabilizer extracted was determined by colorimetric assay using p-dimethylaminobenzaldehyde, in accordance with the method described in Analytical Chemistry 36, 425-26 (1964). A blank trial was carried out with a Compound of the same formula as Compounds Nos. 609 and 676, but without any stabilizer. A purely negative result was obtained. The amounts of stabilizer assayed are expressed in μg per liter of extraction solvent or, which is the same per 1000 cm^2 of surface submitted to extraction.

[3] = Acute toxicity (LD50), oral route, mice; assay type: in vivo; details: mouse, in vivo, gummy suspension
Procedure: (§2) The acute toxicity (LD50) of the stabilizers listed below was carried out, by determining the dose of substance which provoked the death of 50% of the treated animals.
as §1

mice [4] = test: Acute toxicity (LD50), oral route, mice; assay type: in vivo; details: LD50 test
Procedure: as §2, §1

[5] = Static thermostability of the stabilized resin, simplified method (GARDNER sub-scale in polyvinyl chloride sheets)
Procedure: (§3) These studies were performed with five different formulae of vinyl resins (hereinafter referred to as Compounds).
(§4) The different Compounds were mixed and calendered in a mixer of which the cylinders were heated to 160° C. The rigid sheets so obtained were then heated in an oven to a temperature between 180° C and 215° C, until incipient carbonization.
(§5) A stove with rotating drums, ventilated and equipped with a thermostat was used for this operation. In the trials described hereunder, the behaviour of the sheets containing one of the stabilizers to be tested was compared to that of sheets of the same formulae but containing 2-phenylindole as stabilizer.
(2) It is also possible to use a simplified method which is more rapid and with which valid results are also obtained: A reference scale is drawn up with sheets of thermally treated polyvinyl chloride, of which the colorations have been definitely determined in GARDNER degrees as above.
A GARDNER sub-scale is thus obtained in polyvinyl chloride sheets which can be directly compared to the sheets to be tested without using the comparator.

[6] = Sublimation of the stabilizers; assay type: physicochemical; details: 120° C, 15 Torr, 150 minutes; for Percentage of sublimated substance: cold wall 13° C, 150 mg
Description: The tendency to sublimate of 2-(3'-methoxy-4'-hydroxy-phenyl)-indole (Stabilizer 2) was compared to that of 2-phenyl-indole.
A sample of the substance to be tested was introduced into a test tube and heated under reduced pressure. The fraction of sublimated substance was recovered on a mobile cold wall.
After a certain period of time, the sublimated substance was weighed and the result expressed as a percentage of the weight of the starting material.
The results obtained can only be of relative value enabling a comparison to be made between two products tested under the same conditions.
Operating conditions (chosen at random)

[7] = Thermostability of the stabilizers: differential thermoanalysis; assay type: physicochemical; details: 2° C/minute, 2 mg
Procedure: (§6) The thermostability of Stabilizer 2 and that of 2-phenyl-indole were studied by differential thermoanalysis and by thermogravimetric analysis.
Differential thermoanalysis diagrams were drawn up by studying 2 mg samples of material placed in a non-airtight container, the rate of temperature increase being 2° C/minute and sensitivity 4 mcal/sec.
The diagrams were made out for 2-phenyl-indole (i) and Compound 2 (ii) and enabled the following conclusions to be drawn: […]

[8] = Thermostability of the stabilizers: thermogravimetric analysis; assay type: physicochemical
Procedure: as §6
This analysis necessitated two series of trials carried out under air and under inert gas (argon) in order to eliminate any possible effect of oxygen. The results obtained were identical.
The temperature increase rate was 80° /hour.
Thermograms were drawn up under air for both 2-phenyl-indole (i) and for Stabilizer 2 (ii) and enabled the following conclusions to be drawn: […]

[9] = Static thermostability of the stabilized resin, GARDNER Scale comparator; details: 210° C
Procedure: as §3, §4, §5
(1) The coloration of the sheets, of which samples were removed from the stove at fixed intervals, was compared to a standard scale of coloration, known as the GARDNER Scale and expressed in terms of the reference figures of the GARDNER Scale.
Comparisons were made with a GARDNER Scale comparator which contains 18 filters of coloured glass and which offers the possibility of observing by transparency and in a limited field of view both the sheet and the reference filters.

Structure (SMILES): COc1cc(-c2cc3ccccc3[nH]2)ccc1OC(C)C [Stabilizer 27, 2-(3'-methoxy-4'-isopropyloxy-phenyl)-indole]
LD0 (maximal dose which does not provoke any death) (mice [1]): > 3000 mg/kg
Toxic symptoms (mice [1]): none

Structure (SMILES): CCCCCCCCCCCCc1cc(-c2cc3ccccc3[nH]2)ccc1O [Stabilizer 19, 2-(3'-dodecyl-4'-hydroxy-phenyl)-indole]
Extractibility compared with 2-phenyl-indole [2]: markedly less extractible than 2-phenyl-indole

Structure (SMILES): CCCCCCCCCCCCOc1ccc(-c2cc3ccccc3[nH]2)cc1OC [Stabilizer 24, 2-(3'-methoxy-4'-dodecyloxy-phenyl)-indole]
Extractibility compared with 2-phenyl-indole [2]: markedly less extractible than 2-phenyl-indole

Structure (SMILES): COc1c(C)cc(-c2cc3ccccc3[nH]2)cc1C [Stabilizer 17, 2-(3',5'-dimethyl-4'-methoxy-phenyl)-indole]
LD0 (maximal dose which does not provoke any death) (mice [1]): > 3000 mg/kg
Toxic symptoms (mice [1]): none

Structure (SMILES): CCOc1ccc(-c2cc3ccccc3[nH]2)cc1OC [Stabilizer 23, 2-(3'-methoxy-4'-ethoxy-phenyl)-indole]
LD0 (maximal dose which does not provoke any death) (mice [1]): > 500 mg/kg
Toxic symptoms (mice [1]): none

Structure (SMILES): COc1ccc(-c2cc3ccccc3[nH]2)cc1OCc1ccccc1 [Stabilizer 29, 2-(3'-benzyloxy-4'-methoxy-phenyl)indole]
LD0 (maximal dose which does not provoke any death) (mice [1]): > 500 mg/kg
Toxic symptoms (mice [1]): none

Structure (SMILES): CCCCCCCCCCCCOc1ccc(-c2cc3ccccc3[nH]2)cc1C [Stabilizer 30, 2-(3'-methyl-4'-dodecyloxy-phenyl)-indole]
Extractibility compared with 2-phenyl-indole [2]: markedly less extractible than 2-phenyl-indole

Structure (SMILES): CCCCCCCCCCCCc1cc(-c2cc3ccccc3[nH]2)ccc1OC [Stabilizer 14, 2-(3'-dodecyl-4'-methoxy-phenyl)-indole]
LD50 [3]: > 3000 mg/kg
Toxic symptoms (mice [4]): none
Extractibility compared with 2-phenyl-indole [2]: markedly less extractible than 2-phenyl-indole

Structure (SMILES): COc1cc(OC)cc(-c2cc3ccccc3[nH]2)c1 [Stabilizer 3, 2-(3',5'-dimethyoxy-phenyl)-indole]
LD50 [3]: > 2000 mg/kg
Toxic symptoms (mice [4]): none
Static thermostability compared with 2-phenyl-indole ([5]; Compound A, 210° C): markedly superior to 2-phenyl-indole

Structure (SMILES): c1ccc(-c2cc3ccccc3[nH]2)cc1 [2-phenyl-indole]
Toxic symptoms (mice [4]): none
Percentage of sublimated substance [6]: 26.9%
Loss of water [7]: no loss of water at 100 °C
Residue / decomposition ([8]; under air, 210° C): a yellowish residue was, in fact, obtained at 210 °C which constitutes proof of decomposition

Structure (SMILES): c1ccc2[nH]c(-c3ccc4c(c3)OCCO4)cc2c1 [Stabilizer 34, 2-(3',4'-ethylenedioxy-phenyl)-indole]
LD0 (maximal dose which does not provoke any death) (mice [1]): > 3000 mg/kg
Toxic symptoms (mice [1]): none

Static thermostability compared with 2-phenyl-indole ([5]; Compound A, 210° C): clearly superior to 2-phenyl-indole
Structure (SMILES): COc1ccc(-c2cc3ccccc3[nH]2)cc1O [Stabilizer 13, 2-(3'-hydroxy-4'-methoxy-phenyl)-indole]

Structure (SMILES): COc1cc(-c2cc3ccccc3[nH]2)ccc1OCc1ccccc1 [Stabilizer 31, 2-(3'-methoxy-4'-benzyloxy-phenyl)-indole]
LD0 (maximal dose which does not provoke any death) (mice [1]): > 500 mg/kg
Toxic symptoms (mice [1]): none

Structure (SMILES): CCCCOc1ccc(-c2cc3ccccc3[nH]2)cc1OC [Stabilizer 25, 2-(3'-methoxy-4'-butyloxy-phenyl)-indole]
LD0 (maximal dose which does not provoke any death) (mice [1]): > 3000 mg/kg
Toxic symptoms (mice [1]): none

Structure (SMILES): COc1ccc(-c2cc3ccccc3[nH]2)cc1C(C)C [Stabilizer 15, 2-(3'-isopropyl-4'-methoxy-phenyl)-indole]
LD50 [3]: > 3000 mg/kg
Toxic symptoms (mice [4]): none

Structure (SMILES): COc1cc(-c2cc3ccccc3[nH]2)ccc1O [Stabilizer 2, 2-(3'-methoxy-4'-hydroxy-phenyl)-indole]
LD50 [3]: > 2000 mg/kg
Toxic symptoms (mice [4]): none
Static thermostability compared with 2-phenyl-indole ([9]; Compound A): superior to 2-phenylindole
Static thermostability compared with 2-phenyl-indole ([9]; Compound B): superiority of Stabilizer 2 over 2-phenyl-indole is evident after 21 minutes
Static thermostability compared with 2-phenyl-indole ([5]; Compound C, 210° C): superior as a stabilizer to 2-phenyl-indole
Static thermostability compared with 2-phenyl-indole ([5]; Compound D, 185° C, 0, 10 and 20 minutes): markedly superior to 2-phenyl-indole at 0, 10 and 20 minutes
Sublimation compared with 2-phenyl-indole (ratio) [6]: twenty times less than that of 2-phenyl-indole
Percentage of sublimated substance [6]: 1.2%
Loss of water [7]: no loss of water
Thermostability compared with 2-phenyl-indole ([8]; thermogravimetric analysis and differential thermoanalysis): greater thermostability than 2-phenyl-indole
Extractibility, times less than 2-phenyl-indole [2]: at least 10 times less
Extractibility compared with 2-phenyl-indole [2]: markedly less extractible than 2-phenyl-indole

Structure (SMILES): c1ccc2[nH]c(-c3ccc4c(c3)OCO4)cc2c1 [Stabilizer 33, 2-(3',4'-methylenedioxy-phenyl)-indole]
LD0 (maximal dose which does not provoke any death) (mice [1]): > 3000 mg/kg
Toxic symptoms (mice [1]): none
